Experimental data published in patent US20080027014A1, “Novel SGLT inhibitors” (Tanabe Seiyaku Co., Ltd., priority 2006, published 2008).
pIC50: −log10 of the molar value.

Test system: diabetic animal models
Assay: not given
Conditions: continuous subcutaneous administration; cited from earlier work

| Compound | blood glucose level |
| --- | --- |
| O=C(CCc1ccc(O)cc1)c1c(O)cc(O)cc1O[C@@H]1O[C@H](CO)[C@@H](O)[C@H](O)[C@H]1O [phlorizin] | normalized |

Test system: not given
Assay: not given
Conditions: not given

| melting point | Compound |
| --- | --- |
| 153 to 154 °C | OC[C@H]1O[C@@H](c2ccc(Cl)c(Cc3cc4ccccc4s3)c2)[C@H](O)[C@@H](O)[C@H]1F [Example 5, 3-(Benzo[b]thiophen-2-ylmethyl)-4-chloro-1-(4-fluoro-4-deoxy-β-D-galactopyranosyl)benzene] |

Target: T1, human SGLT2 (Homo sapiens, UniProt P31639)
T1 construct: expressed in transfected cells; host or cells: CHOK1 cells (kept under Geneticin selection)
T1 sequence (P31639 1-672): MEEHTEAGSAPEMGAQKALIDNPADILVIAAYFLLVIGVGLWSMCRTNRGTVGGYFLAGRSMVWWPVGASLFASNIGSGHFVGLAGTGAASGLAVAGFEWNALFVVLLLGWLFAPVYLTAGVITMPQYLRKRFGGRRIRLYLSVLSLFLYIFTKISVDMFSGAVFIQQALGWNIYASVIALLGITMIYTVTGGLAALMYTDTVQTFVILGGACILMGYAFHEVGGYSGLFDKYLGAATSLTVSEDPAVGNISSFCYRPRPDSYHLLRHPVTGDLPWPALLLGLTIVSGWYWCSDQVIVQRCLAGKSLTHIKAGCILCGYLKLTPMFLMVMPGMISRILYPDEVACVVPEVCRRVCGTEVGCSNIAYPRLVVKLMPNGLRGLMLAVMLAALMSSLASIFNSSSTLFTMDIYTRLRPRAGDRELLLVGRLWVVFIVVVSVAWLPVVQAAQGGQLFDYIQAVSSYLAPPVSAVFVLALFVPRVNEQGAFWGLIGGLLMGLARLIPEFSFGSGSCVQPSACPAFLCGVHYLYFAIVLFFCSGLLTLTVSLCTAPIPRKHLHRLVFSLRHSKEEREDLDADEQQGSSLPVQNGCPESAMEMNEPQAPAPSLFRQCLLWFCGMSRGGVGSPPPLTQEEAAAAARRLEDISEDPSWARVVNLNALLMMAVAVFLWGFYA
Assay: Assay for SGLT2 inhibition (14C-AMG uptake in CHOK1 cells expressing human SGLT2)
Format: cell-based
Conditions: CHOK1 cells expressing human SGLT2, 14C-AMG uptake 0.5 mM, 2 hours at 37° C.
Protocol: 1. Assay for SGLT2 Inhibition
Compounds described in the above examples were used for the SGLT2 inhibition assay.
CHOK1 cells expressing human SGLT2 were seeded in 24-well plates at a density of 400,000 cells/well in F-12 nutrient mixture (Ham's F-12) containing 10% fetal bovine serum, 400 μg/ml Geneticin, 50 units/ml sodium penicillin G (Gibco-BRL) and 50 μg/ml streptomycin sulfate. After 2 days of culture at 37° C. in a humidified atmosphere containing 5% CO2, cells were washed once with the assay buffer (137 mM NaCl, 5 mM KCl, 1 mM CaCl2, 1 mM MgCl2, 50 mM Hepes, and 20 mM Tris, pH 7.4) and incubated with 250 μl of the buffer containing test compounds for 10 min at 37° C. Test compounds were dissolved in DMSO. The final concentration of DMSO was 0.5%. The transport reaction was initiated by addition of 50 μl [^14C]-methyl-α-D-glucopyranoside (^14C-AMG) solution (final concentration, 0.5 mM). After incubation for 2 hours at 37° C., the uptake was stopped by aspiration of the incubation mixture, the cells were washed three times with ice-cold PBS. Then, cells were solubilized with 0.3 N NaOH and aliquots were taken for determination of radioactivity by a liquid scintillation counter. Nonspecific AMG uptake was defined as that which occurred in the presence of 100 μM of phlorizin, a specific inhibitor of sodium-dependent glucose cotransporter. Specific uptake was normalized for the protein concentrations measured by the method of Bradford. The 50% inhibitory concentration (IC50) values were calculated from dose-response curves by least square method.

| Compound | pIC50 |
| --- | --- |
| CCc1ccc(Cc2cn([C@@H]3S[C@H](CO)[C@@H](O)[C@H](O)[C@H]3O)c3ccccc23)cc1 [Example 1, 3-(4-Ethylphenylmethyl)-1-(5-thio-β-D-glucopyranosyl)indole] | 6.74 |
| OC[C@H]1S[C@@H](n2cc(Cc3ccc4occc4c3)c3c(Cl)cccc32)[C@H](O)[C@@H](O)[C@@H]1O [Example 8] | 7.39 |
| OC[C@H]1S[C@@H](n2cc(Cc3ccc(Cl)cc3)c3c(Cl)cccc32)[C@H](O)[C@@H](O)[C@@H]1O [Example 13] | 6.96 |
| OC[C@H]1S[C@@H](n2cc(Cc3ccc(Br)cc3)c3c(Cl)cccc32)[C@H](O)[C@@H](O)[C@@H]1O [Example 14] | 7.01 |
| OC[C@H]1S[C@@H](n2cc(Cc3ccc4ccccc4c3)c3c(Cl)cccc32)[C@H](O)[C@@H](O)[C@@H]1O [Example 16] | 6.89 |
| OC[C@H]1S[C@@H](n2cc(Cc3ccc(I)cc3)c3c(F)cccc32)[C@H](O)[C@@H](O)[C@@H]1O [Example 17] | 7.20 |
| OC[C@H]1S[C@@H](n2cc(Cc3ccc4occc4c3)c3c(F)cccc32)[C@H](O)[C@@H](O)[C@@H]1O [Example 18] | 6.72 |
| CCOc1ccc(Cc2cn([C@@H]3S[C@H](CO)[C@@H](O)[C@H](O)[C@H]3O)c3cccc(C)c23)cc1 [Example 19] | 7.34 |
| Cc1cccc2c1c(Cc1ccc(Cl)cc1)cn2[C@@H]1S[C@H](CO)[C@@H](O)[C@H](O)[C@H]1O [Example 20] | 6.74 |
| N#Cc1cccc(-c2ccc(Cc3cn([C@@H]4S[C@H](CO)[C@@H](O)[C@H](O)[C@H]4O)c4cccc(Cl)c34)s2)c1 [Example 22] | 6.68 |
| OC[C@H]1S[C@@H](n2cc(Cc3ccc(Br)s3)c3c(Cl)cccc32)[C@H](O)[C@@H](O)[C@@H]1O [Example 23] | 6.77 |
| CCc1ccc(Cc2cn([C@@H]3S[C@H](CO)[C@@H](O)[C@H](O)[C@H]3O)c3cccc(Cl)c23)s1 [Example 25] | 7.17 |
| OC[C@H]1S[C@@H](n2cc(Cc3ccc(-c4ccc(F)nc4)s3)c3c(Cl)cccc32)[C@H](O)[C@@H](O)[C@@H]1O [Example 26] | 6.72 |
| OC[C@H]1S[C@@H](n2cc(Cc3ccc(OC(F)F)cc3)c3c(Cl)cccc32)[C@H](O)[C@@H](O)[C@@H]1O [Example 30] | 7.27 |
| OC[C@H]1S[C@@H](n2cc(Cc3ccc(-c4cccs4)cc3)c3c(F)cccc32)[C@H](O)[C@@H](O)[C@@H]1O [Example 31] | 6.82 |
| CCc1ccc(Cc2cn([C@@H]3O[C@H](CO)[C@@H](F)[C@H](O)[C@H]3O)c3ncccc23)cc1 [Example 36] | 6.92 |

Now from value to molecule:

| pIC50 | Compound |
| --- | --- |
| 7.68 | CCc1ccc(Cc2cn([C@@H]3S[C@H](CO)[C@@H](O)[C@H](O)[C@H]3O)c3cccc(Cl)c23)cc1 [Example 2, 4-Chloro-3-(4-ethylphenylmethyl)-1-(5-thio-β-D-glucopyranosyl)indole] |
| 8.28 | OC[C@H]1O[C@@H](c2ccc(Cl)c(Cc3cc4ccccc4s3)c2)[C@H](O)[C@@H](O)[C@H]1F [Example 5, 3-(Benzo[b]thiophen-2-ylmethyl)-4-chloro-1-(4-fluoro-4-deoxy-β-D-galactopyranosyl)benzene] |
| 7.51 | O[C@@H]1[C@@H](O)[C@H](c2ccc(Cl)c(Cc3ccc(-c4ccccc4)s3)c2)O[C@H](CF)[C@H]1O [Example 6, 4-Chloro-3-(5-phenyl-2-thienylmethyl)-1-(6-fluoro-6-deoxy-β-D-glucopyranosyl)benzene] |
| 7.66 | CSc1ccc(Cc2cn([C@@H]3S[C@H](CO)[C@@H](O)[C@H](O)[C@H]3O)c3cccc(Cl)c23)cc1 [Example 10] |
| 7.82 | COc1ccc(Cc2cn([C@@H]3S[C@H](CO)[C@@H](O)[C@H](O)[C@H]3O)c3cccc(Cl)c23)cc1 [Example 15] |
| 7.72 | Cc1cccc2c1c(Cc1ccc(C3CC3)cc1)cn2[C@@H]1S[C@H](CO)[C@@H](O)[C@H](O)[C@H]1O [Example 28] |
| 8.00 | OC[C@H]1S[C@@H](n2cc(Cc3ccc(-c4ccccn4)s3)c3c(Cl)cccc32)[C@H](O)[C@@H](O)[C@@H]1O [Example 33] |
| 7.46 | OC[C@H]1S[C@@H](n2cc(Cc3ccc(C(F)F)cc3)c3c(Cl)cccc32)[C@H](O)[C@@H](O)[C@@H]1O [Example 34] |
| 7.77 | OC[C@H]1O[C@@H](c2ccc(Cl)c(Cc3cc4ccccc4s3)c2)[C@H](O)[C@@H](O)[C@H]1O [Example 35] |

Test system: male Sprague-Dawley (SD) rats
Assay: Urinary glucose excretion test in rats
Format: in vivo, rat
Conditions: 30 mg/kg by oral gavage, urine collected for 24 hours, daily amount of glucose excreted per individual
Protocol: 2. Urinary Glucose Excretion Test in Rats
Compounds described in the above examples were used for the Urinary glucose excretion test in rats.
6-week-old male Sprague-Dawley (SD) rats were housed in individual metabolic cages with free access to food and water from 2 days prior to the experiment. On the morning of the experiment, rats were administered vehicle (0.2% carboxymethyl cellulose solution containing 0.2% Tween80) or test compounds (30 mg/kg) by oral gavage at a volume of 10 ml/kg. Then, urine of the rat was collected for 24 hours, and the urine volume was measured. Subsequently, the glucose concentration in urine was quantified using the enzymatic assay kit and the daily amount of glucose excreted in urine per individual was calculated.

| Compound | Urinary glucose |
| --- | --- |
| CCc1ccc(Cc2cn([C@@H]3S[C@H](CO)[C@@H](O)[C@H](O)[C@H]3O)c3cccc(Cl)c23)cc1 [Example 2, 4-Chloro-3-(4-ethylphenylmethyl)-1-(5-thio-β-D-glucopyranosyl)indole] | B (2400 mg>B≧2000 mg) |
| OC[C@H]1O[C@@H](c2ccc(Cl)c(Cc3cc4ccccc4s3)c2)[C@H](O)[C@@H](O)[C@H]1F [Example 5, 3-(Benzo[b]thiophen-2-ylmethyl)-4-chloro-1-(4-fluoro-4-deoxy-β-D-galactopyranosyl)benzene] | A (A≧2400 mg) |
